12 compounds from paper PMC7071106 (Molecules, 2020) can be followed below.

One data set deals with Trichomonas vaginalis. The data set can be described thus: In vitro trichomonicidal susceptibility assay (trophozoite growth inhibition). Type of data set: cell-based, Trichomonas vaginalis strain GT3. Particulars: for SI = CC50/IC50 T. vaginalis: CC50 VERO cells / IC50 T. vaginalis; for IC50: Trichomonas vaginalis, trophozoites, 48 h incubation then 48 h subculture, means of three experiments, read-out: IC50 T. vaginalis. As to the method: (§1) G. intestinalis strain IMSS:0696:1 and T. vaginalis strain GT3 were cultured in TYI-S-33 medium, complemented with 10% calf serum and bovine bile. […] Subsequently, trophozoites were washed and subcultured for another 48 h in fresh medium without any drugs. Once this time was reached, trophozoites were counted and the median inhibitory concentration (IC50) was calculated. All the experiments were completed in triplicate.

The test system of the next data set is Giardia duodenalis. The data set can be described thus: In vitro giardicidal susceptibility assay (trophozoite growth inhibition). The data set is classed as cell-based, Giardia duodenalis (G. intestinalis strain IMSS:0696:1). Particulars: for SI = CC50/IC50 G. duodenalis: CC50 VERO cells / IC50 G. duodenalis; for IC50: trophozoites, 48 h incubation then 48 h subculture, means of three experiments, read-out: IC50 G. duodenalis. As to the method: as §1

Data set [1] can be described thus: Cytotoxicity on VERO cell line (sulforhodamine B method). Type of data set: cell-based, mammalian. As to conditions: African green monkey, 1–100 µM, means of three experiments. On the procedure: We cultivated 1.5 × 10^4 VERO cells in a 96-well plate and incubated in DMEM media complemented with 10% fetal bovine serum, 100 µg/mL streptomycin, and 100 UI/mL penicillin. The culture was incubated at 37 °C in a 5% CO2 atmosphere with 95% humidity for 48 h. […] After 48 h of incubation, viability of the cells was estimated using the sulforhodamine B method. The concentration of the compounds that killed 50% of the cells (CC50) was calculated by nonlinear fit (GraphPad Prism 4 software). All concentrations were evaluated in triplicate.

Where two headings read alike, the source gives them in different places.

`Cc1ncc([N+](=O)[O-])n1CCOC(=O)Nc1ccc(Cl)cc1` [Compound 3, 2-(2-methyl-5-nitro-1H-imidazol-1-yl)ethyl (4-chlorophenyl)carbamate]: in the data set on Trichomonas vaginalis, the “SI = CC50/IC50 T. vaginalis” value is on record as >55 and the concentration for half-maximal inhibition (IC50) was found to be 1.79 ± 0.12 µM. Moreover, in the data set on Giardia duodenalis, the “SI = CC50/IC50 G. duodenalis” value is recorded as >87. Also, the IC50 in the data set with Giardia duodenalis (Giardia duodenalis, 48 h) worked out at 1.14 ± 0.12 µM. The CC50 at 48 h in data set [1] (VERO cells) is > 100 µM.
`Cc1ncc([N+](=O)[O-])n1CCO` [Metronidazole, metronidazole, reference compound]: the IC50 in the data set with Trichomonas vaginalis is 0.93 ± 0.12 µM. The CC50 at 48 h in data set [1] (VERO cells) is > 100 µM.
`Cc1ncc([N+](=O)[O-])n1CCOC(=O)Nc1ccc([N+](=O)[O-])cc1` [Compound 5, 2-(2-methyl-5-nitro-1H-imidazol-1-yl)ethyl (4-nitrophenyl)carbamate]: the “SI = CC50/IC50 T. vaginalis” value in the data set on Trichomonas vaginalis is >16. Further, the IC50 with Trichomonas vaginalis turned out to be 6.25 ± 0.12 µM; in the data set with Giardia duodenalis (Giardia duodenalis, 48 h) it was 2.43 ± 0.02 µM. In the data set with Giardia duodenalis, the “SI = CC50/IC50 G. duodenalis” value is reported as >41. The CC50 at 48 h in data set [1] (read-out: CC50 VERO Cells) was > 100 µM.
For the compound `Cc1ncc([N+](=O)[O-])n1CCOC(=O)Nc1ccc(F)cc1` [Compound 4, 2-(2-methyl-5-nitro-1H-imidazol-1-yl)ethyl (4-fluorophenyl)carbamate], the “SI = CC50/IC50 T. vaginalis” value with Trichomonas vaginalis was >31. Further, the IC50 was determined as 3.22 ± 0.21 µM in the data set with Trichomonas vaginalis and 2.03 ± 0.01 µM with Giardia duodenalis (Giardia duodenalis, 48 h). Also, the “SI = CC50/IC50 G. duodenalis” value in the data set on Giardia duodenalis is recorded as >49. In addition, in data set [1] (VERO cells), the CC50 at 48 h is > 100 µM.
`Cc1ncc([N+](=O)[O-])n1CC(C)OC(=O)Nc1ccccc1` (centres unmarked) [Compound 7, 1-methyl-2-(2-methyl-5-nitro-1H-imidazol-1-yl)ethyl phenylcarbamate] had a melting point of 238.9 to 240.5 °C. Also, in the data set with Trichomonas vaginalis, the “SI = CC50/IC50 T. vaginalis” value was >15 and the concentration for half-maximal inhibition (IC50) came out at 6.52 ± 0.71 µM. The “SI = CC50/IC50 G. duodenalis” value with Giardia duodenalis is >59. In the data set with Giardia duodenalis (Giardia duodenalis, 48 h), the IC50 turned out to be 1.67 ± 0.21 µM. In addition, the CC50 at 48 h in data set [1] (VERO cells) was > 100 µM.
In the case of `Cc1ncc([N+](=O)[O-])n1CCOC(=O)Nc1ccccc1` [Compound 2, 2-(2-methyl-5-nitro-1H-imidazol-1-yl)ethyl phenylcarbamate], in the data set with Trichomonas vaginalis, the “SI = CC50/IC50 T. vaginalis” value is >1111 and the IC50 was 0.09 ± 0.01 µM. In addition, in the data set on Giardia duodenalis, the “SI = CC50/IC50 G. duodenalis” value is >102 and the IC50 is 0.98 ± 0.01 µM. For the same compound, in data set [1] (VERO cells), the CC50 at 48 h was > 100 µM.
Take `Cc1ncc([N+](=O)[O-])n1CC(C)OC(=O)Nc1ccc([N+](=O)[O-])cc1` (centres unmarked) [Compound 10, 1-methyl-2-(2-methyl-5-nitro-1H-imidazol-1-yl)ethyl (4-nitrophenyl)carbamate]: the melting point is 235.4 °C (dec.). Further, in the data set on Trichomonas vaginalis, the “SI = CC50/IC50 T. vaginalis” value is >10 and the IC50 was 9.99 ± 0.56 µM. Further, in the data set on Giardia duodenalis, the “SI = CC50/IC50 G. duodenalis” value is >116. The IC50 in the data set with Giardia duodenalis (Giardia duodenalis, 48 h) came to 0.86 ± 0.09 µM. Besides, the CC50 at 48 h in data set [1] (read-out: CC50 VERO Cells) is > 100 µM.
With `Cc1ncc([N+](=O)[O-])n1CC(C)OC(=O)NC1CCCCC1` (centres unmarked) [Compound 6, 1-methyl-2-(2-methyl-5-nitro-1H-imidazol-1-yl)ethyl cyclohexylcarbamate], the melting point was in the range of 219.2 to 222.7 °C. Also, in the data set with Trichomonas vaginalis, the “SI = CC50/IC50 T. vaginalis” value is >11 and the IC50 worked out at 8.64 ± 0.73 µM. Also, the “SI = CC50/IC50 G. duodenalis” value in the data set with Giardia duodenalis is listed as >37. For the same compound, the IC50 with Giardia duodenalis (Giardia duodenalis, 48 h) was determined as 2.64 ± 0.61 µM. Further, the CC50 at 48 h in data set [1] (VERO cells) was > 100 µM.
`Cc1ncc([N+](=O)[O-])n1CCOC(=O)NC1CCCCC1` [Compound 1, 2-(2-methyl-5-nitro-1H-imidazol-1-yl)ethyl cyclohexylcarbamate]: in the data set on Trichomonas vaginalis, the “SI = CC50/IC50 T. vaginalis” value is reported as >1666 and the IC50 stood at 0.06 ± 0.01 µM. Besides, the “SI = CC50/IC50 G. duodenalis” value with Giardia duodenalis is >217. In addition, in the data set on Giardia duodenalis (Giardia duodenalis, 48 h), the IC50 amounted to 0.46 ± 0.01 µM. In addition, in data set [1] (VERO cells), the CC50 at 48 h was > 100 µM.
Consider `Cc1ncc([N+](=O)[O-])n1CC(C)OC(=O)Nc1ccc(F)cc1` (centres unmarked) [Compound 9, 1-methyl-2-(2-methyl-5-nitro-1H-imidazol-1-yl)ethyl (4-fluorophenyl)carbamate], for which the melting point is 162.3 to 163.5 °C. Besides, in the data set on Trichomonas vaginalis, the “SI = CC50/IC50 T. vaginalis” value was >20 and the IC50 amounted to 4.82 ± 1.08 µM. The “SI = CC50/IC50 G. duodenalis” value in the data set with Giardia duodenalis is >30. For the same compound, the IC50 in the data set on Giardia duodenalis (Giardia duodenalis, 48 h) was 3.23 ± 0.11 µM. In addition, the CC50 at 48 h in data set [1] (VERO cells) is > 100 µM.
In the case of `Cc1ncc([N+](=O)[O-])n1CC(C)OC(=O)Nc1ccc(Cl)cc1` (centres unmarked) [Compound 8, 1-methyl-2-(2-methyl-5-nitro-1H-imidazol-1-yl)ethyl (4-chlorophenyl)carbamate], the melting point was 268.1 °C (dec.). In the data set on Trichomonas vaginalis, the “SI = CC50/IC50 T. vaginalis” value is listed as >16 and the IC50 was found to be 5.93 ± 0.51 µM. Besides, the “SI = CC50/IC50 G. duodenalis” value with Giardia duodenalis is recorded as >24. Further, in the data set on Giardia duodenalis (Giardia duodenalis, 48 h), the IC50 came out at 4.05 ± 0.24 µM. Also, the CC50 at 48 h in data set [1] (VERO cells) is > 100 µM.
On to `Cc1ncc([N+](=O)[O-])n1CC(C)O` (centres unmarked) [Secnidazole, secnidazole, reference compound], for which, in the data set with Trichomonas vaginalis, the “SI = CC50/IC50 T. vaginalis” value is given as >7 and the IC50 was found to be 13.5 ± 1.23 µM. The “SI = CC50/IC50 G. duodenalis” value in the data set on Giardia duodenalis is >24. Moreover, in the data set on Giardia duodenalis (Giardia duodenalis, 48 h), the IC50 turned out to be 4.11 ± 0.12 µM. Also, the CC50 at 48 h in data set [1] (VERO cells) was > 100 µM.
